Reference: US20260226067A1, “MODULATORS OF TRPML, THEIR COMPOSITIONS AND METHODS OF USE” (Caraway Therapuetics, Inc., priority 2023, published 2026)

Legend:
[1] = system: TRPMLs; settings: background statement; cited from earlier work
[2] = target: human TRPML1 (Homo sapiens, UniProt Q9GZU1); test: Fluorescent TRPML1 assay (Fluo4-AM calcium fluorescence); type: cell-based; settings: HEK-293 Trex cells expressing hTRPML1, Fluo4-AM fluorescence; read-out: Human TRPML 1 EC50
Protocol: (§1) HEK-293 Trex cells were stably transfected with a construct consisting of the human coding sequence for TRPML1 cloned into the tet-inducible plasmid pCDNA5 T/O. Mutations were introduced into the TRPML1 sequence to facilitate expression on the cell surface (Silvia Vergarajauregui, Rosa Puertollano Traffic. 2006 March; 7(3): 337-353). Briefly, the cells are cultured in 150 mm round tissue culture dishes containing 20 mL of media. The day before the assay the cells are rinsed with DPBS-Ca-Mg and then treated briefly with Trypsin-EDTA. The Trypsin-EDTA is diluted with growth media, and cells are counted. 38×10^6 cells are re-plated into 150 mm round tissue culture dishes in media containing 0.5 ug/mL doxycycline to induce expression of hTRPML1.
(§2) The day of the experiment cells are lifted from the plates as above and collected by centrifugation. The cells are then suspended in dye loading buffer consisting of Ringer's solution supplemented with 0.1% Pluronic Acid and 1 micromolar Fluo4-AM dye. Cells are loaded for ~60 minutes in the dark with occasional mixing. The cells are collected by centrifugation, the loading media aspirated, and the cells resuspended in 25 mL Ringer's solution and incubated ~60 minutes in the dark. The cells are again collected by centrifugation, rinsed in Ringer's Solution and resuspended to 0.2×10^6 cells/mL in modified Ringer's solution containing 10 mM calcium.
(§3) Compounds are dissolved to a concentration of 10 millimolar with DMSO. Compound plates are created by dispensing compounds into 384 well black wall clear bottom plates (Greiner 781091). Positive and negative controls are included on each plate. Typically, different amounts of each compound are tested ranging from 100 nanoMoles (20 micromolar final concentration) decreasing in half-log steps to 31 picoMoles (6 nanomolar final concentration). Each concentration is typically tested in triplicate.
(§4) 50 microliters of dye-loaded cells are dispensed into each well of the compound assay plate created above. The fluorescence in each well is then determined with an excitation wavelength of 480 nm and an emission wavelength of 540 nm using either a Molecular Devices SpectraMax multimode plate reader or a Hamamatsu FDSS/uCell plate imager.
(§5) The resulting fluorescence for each well is exported as an ascii file and loaded into our LIMS for analysis. The percent activity of each compound at each concentration is determined by comparison to the positive and negative control wells included in each plate.
(§6) EC50 values were calculated using a non-linear regression of Prism. In the table, “A” indicates an EC50 of less than 100 nM, “B” indicates an EC50 range from 100 nM to 500 nM; “C” indicates an EC50 range from 500 nM to 2 μM; and “D” indicates an EC50 greater than 2 μM.

[3] = target: T1, Human TRPML2 (Homo sapiens, UniProt Q8IZK6); test: Fluorescent TRPML2 assay (as for TRPML1); type: cell-based; settings: as TRPML1 assay with TRPML2 subtype; read-out: Human TRPML 2 EC50
T1 construct: expressed in transfected cells
T1 sequence (Q8IZK6 1-566): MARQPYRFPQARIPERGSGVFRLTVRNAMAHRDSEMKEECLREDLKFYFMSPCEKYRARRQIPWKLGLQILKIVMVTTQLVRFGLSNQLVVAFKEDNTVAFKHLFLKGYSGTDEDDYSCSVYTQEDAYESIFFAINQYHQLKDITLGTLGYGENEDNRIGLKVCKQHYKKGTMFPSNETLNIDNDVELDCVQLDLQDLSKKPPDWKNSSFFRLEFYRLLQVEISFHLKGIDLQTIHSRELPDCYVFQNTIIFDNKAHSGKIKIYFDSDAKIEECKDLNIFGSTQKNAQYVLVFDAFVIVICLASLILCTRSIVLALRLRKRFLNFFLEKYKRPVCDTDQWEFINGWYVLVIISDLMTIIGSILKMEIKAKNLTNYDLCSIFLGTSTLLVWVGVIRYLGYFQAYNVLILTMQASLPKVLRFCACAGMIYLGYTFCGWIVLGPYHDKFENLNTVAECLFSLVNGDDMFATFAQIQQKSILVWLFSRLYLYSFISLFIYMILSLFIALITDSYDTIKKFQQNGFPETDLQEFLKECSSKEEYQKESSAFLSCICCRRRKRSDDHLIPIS
Protocol: as §1, §2, §3, §4, §5
(§7) Assays for TRPML2 and TRPML3 were performed as above for TRPML1, by substituting the appropriate TRPML2 or TRPML3 subtype for the TRPML1.
as §6

[4] = target: T2, Human TRPML3 (Homo sapiens, UniProt Q8TDD5); test: Fluorescent TRPML3 assay (as for TRPML1); type: cell-based; settings: as TRPML1 assay with TRPML3 subtype; read-out: Human TRPML 3 EC50
T2 construct: expressed in transfected cells
T2 sequence (Q8TDD5 1-553): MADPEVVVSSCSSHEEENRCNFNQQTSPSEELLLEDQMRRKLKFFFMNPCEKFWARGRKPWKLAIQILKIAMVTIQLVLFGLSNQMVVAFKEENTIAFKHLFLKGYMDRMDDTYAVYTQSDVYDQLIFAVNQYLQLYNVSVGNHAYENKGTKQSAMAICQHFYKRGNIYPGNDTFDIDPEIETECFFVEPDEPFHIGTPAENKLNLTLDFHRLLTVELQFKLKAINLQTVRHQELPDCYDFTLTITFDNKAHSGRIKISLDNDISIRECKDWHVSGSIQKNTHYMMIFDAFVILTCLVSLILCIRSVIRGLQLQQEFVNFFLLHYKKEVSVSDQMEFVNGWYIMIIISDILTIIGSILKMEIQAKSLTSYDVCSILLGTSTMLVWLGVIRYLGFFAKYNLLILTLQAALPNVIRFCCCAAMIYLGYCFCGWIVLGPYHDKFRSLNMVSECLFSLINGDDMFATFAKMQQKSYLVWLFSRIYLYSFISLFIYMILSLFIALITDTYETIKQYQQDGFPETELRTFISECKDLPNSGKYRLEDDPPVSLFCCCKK
Protocol: as §1, §2, §3, §4, §5, §7, §6

human TRPML1, sequence (Q9GZU1 whole entry L15A/L16A/L577A/L578A, form open): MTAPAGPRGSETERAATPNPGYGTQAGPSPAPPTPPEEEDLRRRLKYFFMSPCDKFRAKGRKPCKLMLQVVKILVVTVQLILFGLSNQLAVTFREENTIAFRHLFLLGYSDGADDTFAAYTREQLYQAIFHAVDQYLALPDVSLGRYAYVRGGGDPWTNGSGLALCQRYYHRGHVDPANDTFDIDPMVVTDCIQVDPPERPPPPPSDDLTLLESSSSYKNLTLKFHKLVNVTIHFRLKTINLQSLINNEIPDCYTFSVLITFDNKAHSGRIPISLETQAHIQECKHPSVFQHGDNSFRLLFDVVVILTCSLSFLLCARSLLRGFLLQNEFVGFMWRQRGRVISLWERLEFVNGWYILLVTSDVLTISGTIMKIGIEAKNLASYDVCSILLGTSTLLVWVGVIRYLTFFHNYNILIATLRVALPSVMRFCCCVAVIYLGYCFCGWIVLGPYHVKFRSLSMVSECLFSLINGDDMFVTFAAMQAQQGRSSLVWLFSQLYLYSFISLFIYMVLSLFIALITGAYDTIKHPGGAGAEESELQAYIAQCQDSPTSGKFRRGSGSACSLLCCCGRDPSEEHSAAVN

Compound | EC50 [2] [nM] | EC50 [3] [nM] | EC50 [4] [nM] | concentration needed to effectively activate TRPMLs [1]
CC1CC(C)(C)N(C(=O)CN2C(=O)c3ccccc3C2=O)c2ccccc21 (stereo not shown) [ML-SA1] |  |  |  | ~ 10 μM
C[C@@H]1CN(c2ncnc3c2c(C2CCC2)cn3-c2cc(C#N)ccn2)[C@@H](C)CN1C(=O)c1ccccc1 [Compound 110, 2-(4-((2S,5R)-4-benzoyl-2,5-dimethylpiperazin-1-yl)-5-cyclobutyl-7H-pyrrolo[2,3-d]pyrimidin-7-yl)isonicotinonitrile] | < 100 | 100 to 500 | 100 to 500 | 
C[C@@H]1CN(c2ncnc3c2c(N2CCC2)cn3-c2cc(C#N)ccn2)CCN1C(=O)c1ccccc1 [Compound 101, (R)-2-(5-(azetidin-1-yl)-4-(4-benzoyl-3-methylpiperazin-1-yl)-7H-pyrrolo[2,3-d]pyrimidin-7-yl)isonicotinonitrile] | < 100 | 100 to 500 | < 100 | 
C[C@H]1CN(C(=O)c2ccccc2)CCN1c1ncnc2c1c(-c1ccccc1F)cn2-c1cc(C#N)ccn1 [Compound 122, (S)-2-(4-(4-benzoyl-2-methylpiperazin-1-yl)-5-(2-fluorophenyl)-7H-pyrrolo[2,3-d]pyrimidin-7-yl)isonicotinonitrile] | < 100 | 500 to 2000 | 100 to 500 | 

Further lines, with some results ahead:

EC50 [2] [nM] | EC50 [3] [nM] | EC50 [4] [nM] | Compound | concentration needed to effectively activate TRPMLs [1]
< 100 | 500 to 2000 | 100 to 500 | C[C@@H]1CN(c2ncnc3c2c(-c2ccccc2)cn3-c2cc(C#N)ccn2)[C@@H](C)CN1C(=O)c1ccccc1 [Compound 116, 2-(4-((2S,5R)-4-benzoyl-2,5-dimethylpiperazin-1-yl)-5-phenyl-7H-pyrrolo[2,3-d]pyrimidin-7-yl)isonicotinonitrile] | 
< 100 | 100 to 500 | < 100 | CC(C)c1ccccc1C(=O)N1C[C@H](C)N(c2ncnc3c2c(-c2ccccc2F)cn3-c2cc(C#N)ccn2)C[C@H]1C [Compound 120, 2-(5-(2-fluorophenyl)-4-((2S,5R)-4-(2-isopropylbenzoyl)-2,5-dimethylpiperazin-1-yl)-7H-pyrrolo[2,3-d]pyrimidin-7-yl)isonicotinonitrile] | 
100 to 500 | 100 to 500 | 500 to 2000 | C[C@@H]1CN(c2ncnc3c2c(N2CCC2)cn3-c2cc(C#N)ccn2)[C@@H](C)CN1C(=O)c1ccccc1F [Compound 113, 2-(5-(azetidin-1-yl)-4-((2S,5R)-4-(2-fluorobenzoyl)-2,5-dimethylpiperazin-1-yl)-7H-pyrrolo[2,3-d]pyrimidin-7-yl)isonicotinonitrile] | 
